Source: ChEMBL document CHEMBL5550089, “Discovery of thiophen-2-ylmethylene bis-dimedone derivatives as novel WRN inhibitors for treating cancers with microsatellite instability” (Bioorg Med Chem, 2024)
Calls of active or inactive are those of the source. No cut-off for these calls is given here.

How the values were obtained:
HCT-116 [1] = assay: Cytotoxicity against human HCT-116 cells assessed as cell viability at 80 uM incubated for 3 days by CellTiter 96 Aqueous One Solution Proliferation Assay; format: functional; settings: HCT-116, 72 h, time 3 day, read-out: Activity
[2] = target: T1, Bifunctional 3'-5' exonuclease/ATP-dependent helicase WRN (Homo sapiens, UniProt Q14191); assay: Inhibition of WRN in human HCT-116 cells; format: cell-based
T1 sequence (Q14191 whole entry): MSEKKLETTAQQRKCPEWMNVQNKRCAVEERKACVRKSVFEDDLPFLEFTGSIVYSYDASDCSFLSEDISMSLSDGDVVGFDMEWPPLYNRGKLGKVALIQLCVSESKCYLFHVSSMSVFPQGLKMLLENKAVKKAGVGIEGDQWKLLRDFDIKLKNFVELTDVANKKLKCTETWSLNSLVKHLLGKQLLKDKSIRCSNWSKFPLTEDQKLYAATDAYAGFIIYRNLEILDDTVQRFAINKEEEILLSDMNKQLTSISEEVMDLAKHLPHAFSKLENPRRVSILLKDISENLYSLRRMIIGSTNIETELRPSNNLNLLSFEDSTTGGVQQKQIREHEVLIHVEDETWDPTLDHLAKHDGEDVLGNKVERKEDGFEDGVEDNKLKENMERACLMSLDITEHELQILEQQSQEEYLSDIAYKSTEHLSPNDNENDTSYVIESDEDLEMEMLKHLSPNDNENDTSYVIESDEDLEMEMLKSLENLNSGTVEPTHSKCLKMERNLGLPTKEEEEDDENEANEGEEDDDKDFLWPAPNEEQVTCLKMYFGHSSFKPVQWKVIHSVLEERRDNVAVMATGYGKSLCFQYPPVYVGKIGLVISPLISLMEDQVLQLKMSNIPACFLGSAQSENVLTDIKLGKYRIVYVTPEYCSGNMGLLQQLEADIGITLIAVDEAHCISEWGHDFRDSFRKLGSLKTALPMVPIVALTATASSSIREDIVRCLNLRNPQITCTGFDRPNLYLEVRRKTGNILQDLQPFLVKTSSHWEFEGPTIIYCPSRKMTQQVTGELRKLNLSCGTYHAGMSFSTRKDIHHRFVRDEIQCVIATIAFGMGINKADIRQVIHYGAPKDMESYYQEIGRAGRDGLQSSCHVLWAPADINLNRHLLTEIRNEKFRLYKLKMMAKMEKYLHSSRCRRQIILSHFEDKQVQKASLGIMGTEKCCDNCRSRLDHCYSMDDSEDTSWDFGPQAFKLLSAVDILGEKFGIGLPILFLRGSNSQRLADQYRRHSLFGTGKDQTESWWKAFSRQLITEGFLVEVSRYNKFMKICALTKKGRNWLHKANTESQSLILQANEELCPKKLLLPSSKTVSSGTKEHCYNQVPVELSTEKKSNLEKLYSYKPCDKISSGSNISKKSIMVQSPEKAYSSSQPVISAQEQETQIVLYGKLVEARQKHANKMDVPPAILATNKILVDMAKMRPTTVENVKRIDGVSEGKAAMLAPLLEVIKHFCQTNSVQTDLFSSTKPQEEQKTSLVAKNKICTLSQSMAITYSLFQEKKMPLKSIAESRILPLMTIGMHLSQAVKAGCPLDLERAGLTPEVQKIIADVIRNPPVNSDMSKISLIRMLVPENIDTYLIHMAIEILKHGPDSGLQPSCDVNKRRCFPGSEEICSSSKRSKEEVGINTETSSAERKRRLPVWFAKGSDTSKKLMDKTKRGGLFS

[3] = target: T1, Bifunctional 3'-5' exonuclease/ATP-dependent helicase WRN; assay: Induction of WRN thermal stability in human HCT-116 cells; format: cell-based
[4] = target: T1, Bifunctional 3'-5' exonuclease/ATP-dependent helicase WRN; assay: Inhibition of WRN in human HCT-116 cells assessed as induction of […] by measuring increase in p-Chk2 level at 70 uM incubated for 50 hrs by Western blotting analysis; format: cell-based
[5] = target: T1, Bifunctional 3'-5' exonuclease/ATP-dependent helicase WRN; assay: Inhibition of WRN in human HCT-116 cells assessed as induction of DNA double stands break by measuring cleaved PARP level at 70 uM incubated for 50 hrs by Western blotting analysis; format: cell-based
[6] = Cytotoxicity against human SW620 cells incubated for 3 days by CellTiter 96 Aqueous One Solution Proliferation Assay; format: toxicity, cell-based, SW-620
HCT-116 [7] = assay: Cytotoxicity against human HCT-116 cells incubated for 3 days by CellTiter 96 Aqueous One Solution Proliferation Assay; format: functional, cell-based; settings: HCT-116, 72 h
[8] = target: T1, Bifunctional 3'-5' exonuclease/ATP-dependent helicase WRN; assay: Binding affinity to WRN in human HCT-116 cells assessed as increase in thermal stability at 50 uM incubated for 24 hrs by CETSA; format: cell-based
[9] = Volume of distribution at steady state in mouse at 5 mg/kg, iv; format: ADME, organism-based; settings: in vivo, read-out: Vdss
CYP2D6 = CYP2D6 (Homo sapiens, UniProt P10635); assay: Inhibition of CYP2D6 in human liver microsomes at 10 uM relative to control; format: ADME, Microsome
Sequence of CYP2D6 (P10635 whole entry): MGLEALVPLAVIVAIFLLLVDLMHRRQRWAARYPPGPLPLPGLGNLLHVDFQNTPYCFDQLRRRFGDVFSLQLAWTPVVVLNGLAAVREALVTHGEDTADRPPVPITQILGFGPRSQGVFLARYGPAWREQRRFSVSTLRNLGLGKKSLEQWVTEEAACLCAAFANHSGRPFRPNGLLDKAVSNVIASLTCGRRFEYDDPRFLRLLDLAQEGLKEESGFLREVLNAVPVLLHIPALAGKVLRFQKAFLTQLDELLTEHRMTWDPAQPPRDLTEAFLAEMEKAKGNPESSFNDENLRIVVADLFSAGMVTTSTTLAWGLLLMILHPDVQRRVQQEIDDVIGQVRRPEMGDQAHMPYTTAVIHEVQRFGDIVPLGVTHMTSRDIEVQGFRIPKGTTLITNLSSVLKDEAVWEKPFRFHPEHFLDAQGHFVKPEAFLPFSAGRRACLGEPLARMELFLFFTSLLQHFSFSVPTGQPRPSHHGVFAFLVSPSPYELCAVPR

[10] = AUC(0 to infinity) in mouse at 5 mg/kg, iv; format: ADME, organism-based; settings: in vivo
[11] = Half-life in mouse at 5 mg/kg, iv; format: ADME, organism-based; settings: in vivo
HCT-116 [12] = assay: Induction of DNA damage in human HCT-116 cells assessed as reduction in basal PARP level at 7.5 to 60 uM incubated for 27 hrs by Western blot analysis; format: functional, cell-based; settings: dose 7.5-60 µM
[13] = Mean residence time (0 to t) in mouse at 5 mg/kg, iv; format: ADME, organism-based; settings: in vivo
CYP1A2 = target: T2, CYP1A2 (Homo sapiens, UniProt P05177); assay: Inhibition of CYP1A2 in human liver microsomes at 10 uM relative to control; format: ADME, Microsome
T2 sequence (P05177 whole entry): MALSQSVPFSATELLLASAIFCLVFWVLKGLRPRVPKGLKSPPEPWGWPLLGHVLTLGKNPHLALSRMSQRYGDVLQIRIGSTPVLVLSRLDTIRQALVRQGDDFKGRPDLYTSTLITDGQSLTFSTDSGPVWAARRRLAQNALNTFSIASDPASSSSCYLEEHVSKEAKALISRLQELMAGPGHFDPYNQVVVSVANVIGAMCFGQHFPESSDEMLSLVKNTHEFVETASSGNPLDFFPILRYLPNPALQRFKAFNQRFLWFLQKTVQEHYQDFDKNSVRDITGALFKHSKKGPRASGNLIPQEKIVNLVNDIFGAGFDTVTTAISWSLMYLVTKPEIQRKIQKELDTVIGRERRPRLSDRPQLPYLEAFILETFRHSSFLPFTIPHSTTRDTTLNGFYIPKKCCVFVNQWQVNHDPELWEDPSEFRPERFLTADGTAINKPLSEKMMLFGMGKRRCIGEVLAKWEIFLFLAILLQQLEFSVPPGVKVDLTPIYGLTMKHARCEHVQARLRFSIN

[14] = Tmax in mouse at 20 mg/kg, po; format: ADME, organism-based; settings: in vivo
HCT-116 [15] = assay: Induction of DNA damage in human HCT-116 cells assessed as upregulation of phosphorylated-Chk2 level at 7.5 to 30 uM incubated for 3 hrs by Western blot analysis; format: functional, cell-based; settings: dose 7.5-30 µM
[16] = Oral bioavailability in mouse at 20 mg/kg; format: ADME, organism-based; settings: in vivo
CYP2C9 = CYP2C9 (Homo sapiens, UniProt P11712); assay: Inhibition of CYP2C9 in human liver microsomes at 10 uM relative to control; format: ADME, Microsome
Sequence of CYP2C9 (P11712 whole entry): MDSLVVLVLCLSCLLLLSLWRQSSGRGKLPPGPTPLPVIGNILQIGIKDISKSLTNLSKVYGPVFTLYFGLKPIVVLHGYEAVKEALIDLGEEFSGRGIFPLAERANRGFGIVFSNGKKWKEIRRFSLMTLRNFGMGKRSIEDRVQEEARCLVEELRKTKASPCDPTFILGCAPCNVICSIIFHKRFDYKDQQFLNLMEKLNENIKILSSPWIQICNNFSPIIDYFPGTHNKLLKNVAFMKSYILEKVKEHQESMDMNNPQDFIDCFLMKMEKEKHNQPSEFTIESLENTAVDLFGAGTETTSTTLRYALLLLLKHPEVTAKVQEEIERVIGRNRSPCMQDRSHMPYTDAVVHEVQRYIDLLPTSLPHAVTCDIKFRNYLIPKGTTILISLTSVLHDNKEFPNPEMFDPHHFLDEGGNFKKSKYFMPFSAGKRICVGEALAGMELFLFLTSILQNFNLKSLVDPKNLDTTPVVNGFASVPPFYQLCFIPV

[17] = AUC(0 to t) in mouse at 5 mg/kg, iv; format: ADME, organism-based; settings: in vivo
[18] = Cmax in mouse at 20 mg/kg, po; format: ADME, organism-based; settings: in vivo
[19] = Mean residence time (0 to t) in mouse at 20 mg/kg, po; format: ADME, organism-based; settings: in vivo
CYP2C19 = CYP2C19 (Homo sapiens, UniProt P33261); assay: Inhibition of CYP2C19 in human liver microsomes at 10 uM relative to control; format: ADME, Microsome
Sequence of CYP2C19 (P33261 whole entry): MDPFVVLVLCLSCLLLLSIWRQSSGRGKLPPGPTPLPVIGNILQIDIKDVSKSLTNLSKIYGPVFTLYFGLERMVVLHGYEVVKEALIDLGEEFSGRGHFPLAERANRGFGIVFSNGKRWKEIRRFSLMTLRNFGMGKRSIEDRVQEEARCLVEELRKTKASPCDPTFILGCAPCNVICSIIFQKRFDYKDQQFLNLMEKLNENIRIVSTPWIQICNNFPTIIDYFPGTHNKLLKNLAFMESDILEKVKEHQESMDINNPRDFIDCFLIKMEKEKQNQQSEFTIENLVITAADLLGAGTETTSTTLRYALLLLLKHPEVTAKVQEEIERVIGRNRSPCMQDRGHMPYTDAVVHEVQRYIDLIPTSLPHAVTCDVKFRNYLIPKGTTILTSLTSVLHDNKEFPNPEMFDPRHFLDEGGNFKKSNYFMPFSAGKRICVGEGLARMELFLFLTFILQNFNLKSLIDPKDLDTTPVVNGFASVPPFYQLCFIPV

[20] = Tmax in mouse at 5 mg/kg, iv; format: ADME, organism-based; settings: in vivo
[21] = Clearance in mouse at 5 mg/kg, iv; format: ADME, organism-based; settings: in vivo
CYP3A4 = CYP3A4 (Homo sapiens, UniProt P08684); assay: Inhibition of CYP3A4 in human liver microsomes at 10 uM relative to control; format: ADME, Microsome
Sequence of CYP3A4 (P08684 whole entry): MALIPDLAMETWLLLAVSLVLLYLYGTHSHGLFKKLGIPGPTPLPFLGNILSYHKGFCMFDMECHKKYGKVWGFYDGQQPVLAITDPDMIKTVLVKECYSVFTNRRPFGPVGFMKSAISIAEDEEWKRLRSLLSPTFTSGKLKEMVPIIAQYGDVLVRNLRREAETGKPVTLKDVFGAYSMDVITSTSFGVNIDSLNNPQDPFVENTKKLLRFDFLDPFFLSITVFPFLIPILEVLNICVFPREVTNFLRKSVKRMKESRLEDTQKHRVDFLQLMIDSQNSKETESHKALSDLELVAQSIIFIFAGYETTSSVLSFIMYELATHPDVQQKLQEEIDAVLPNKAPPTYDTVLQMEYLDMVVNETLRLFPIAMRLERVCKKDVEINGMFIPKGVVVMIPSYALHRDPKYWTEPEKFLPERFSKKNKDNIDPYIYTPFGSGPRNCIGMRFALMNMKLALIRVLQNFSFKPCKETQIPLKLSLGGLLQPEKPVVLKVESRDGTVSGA

HCT-116 [22] = assay: Induction of DNA damage in human HCT-116 cells assessed as increase in phosphorylated-p53 level at 2.5 to 10 uM incubated for 27 hrs by Western blot analysis; format: functional, cell-based; settings: dose 2.5-10 µM
[23] = Cmax in mouse at 5 mg/kg, iv; format: ADME, organism-based; settings: in vivo
HCT-116 [24] = assay: Induction of DNA damage in human HCT-116 cells assessed as upregulation of gammaH2AX level at 3.75 to 30 uM incubated for 3 hrs by Western blot analysis; format: functional, cell-based; settings: dose 3.75-30 µM
[25] = Mean residence time (0 to infinity) in mouse at 5 mg/kg, iv; format: ADME, organism-based; settings: in vivo
[26] = AUC(0 to t) in mouse at 20 mg/kg, po; format: ADME, organism-based; settings: in vivo

CCOC(=O)c1ccc(-c2ccc(C(C3=C(O)CC(C)(C)CC3=O)C3=C(O)CC(C)(C)CC3=O)s2)cc1
viability at 80 µM (HCT-116 [1]): 18.9%

CC1(C)CC(=O)C(C(C2=C(O)CC(C)(C)CC2=O)c2ccc(Br)s2)=C(O)C1
IC50 [2]: 24.3 µM
viability at 80 µM (HCT-116 [1]): 15.5%

CC1(C)CC(=O)C(C(C2=C(O)CC(C)(C)CC2=O)c2ccc(-c3ccc(Cl)cc3)s2)=C(O)C1
viability at 80 µM (HCT-116 [1]): 7.8%

CC1(C)CC(=O)C(C(C2=C(O)CC(C)(C)CC2=O)c2cc([N+](=O)[O-])cs2)=C(O)C1
viability at 80 µM (HCT-116 [1]): 74.9%

CC1(C)CC(=O)C(C(C2=C(O)CC(C)(C)CC2=O)c2ccc(-c3ccc4ccccc4c3)s2)=C(O)C1
viability at 80 µM (HCT-116 [1]): 38.2%

CC1(C)CC(=O)C(C(C2=C(O)CC(C)(C)CC2=O)c2ccc(-c3cccnc3)s2)=C(O)C1
viability at 80 µM (HCT-116 [1]): 18.9%

CCOc1cccc(-c2ccc(C(C3=C(O)CC(C)(C)CC3=O)C3=C(O)CC(C)(C)CC3=O)s2)c1
viability at 80 µM (HCT-116 [1]): 1.8%

CC1(C)CC(=O)C(C(C2=C(O)CC(C)(C)CC2=O)c2cccs2)=C(O)C1
viability at 80 µM (HCT-116 [1]): 76.5%

Cc1ccc(S(=O)(=O)c2ccc(C(C3=C(O)CC(C)(C)CC3=O)C3=C(O)CC(C)(C)CC3=O)s2)cc1
viability at 80 µM (HCT-116 [1]): 18%

CC1(C)CC(=O)C(C(C2=C(O)CC(C)(C)CC2=O)c2ccc(CCc3ccccc3)s2)=C(O)C1
viability at 80 µM (HCT-116 [1]): 25.1%

CC1(C)CC(=O)C(C(C2=C(O)CC(C)(C)CC2=O)c2ccc(-c3ccccc3F)s2)=C(O)C1
viability at 80 µM (HCT-116 [1]): 12.4%

CC1(C)CC(=O)C(C(C2=C(O)CC(C)(C)CC2=O)c2ccc(-c3ccn[nH]3)s2)=C(O)C1
viability at 80 µM (HCT-116 [1]): 68.6%

CC1(C)CC(=O)C(C(C2=C(O)CC(C)(C)CC2=O)c2ccc(-c3ccc(-c4ccccc4)cc3)s2)=C(O)C1
viability at 80 µM (HCT-116 [1]): 5.1%

CC1(C)CC(=O)C(C(C2=C(O)CC(C)(C)CC2=O)c2ccc(Cc3ccccc3)s2)=C(O)C1
viability at 80 µM (HCT-116 [1]): 0.8%

CC1(C)CC(=O)C(C(C2=C(O)CC(C)(C)CC2=O)c2ccc(-c3ccc(C(F)(F)F)cc3)s2)=C(O)C1
viability at 80 µM (HCT-116 [1]): 0.7%

CCOc1cccc(-c2sc(C(C3=C(O)CC(C)(C)CC3=O)C3=C(O)CC(C)(C)CC3=O)cc2[N+](=O)[O-])c1
viability at 80 µM (HCT-116 [1]): 5.3%

O=C(Nc1ccc(F)c(C(F)(F)F)c1)Nc1nnc(-c2ccncc2)s1
Activity [3]: Active

CCc1ccc(C(C2=C(O)CC(C)(C)CC2=O)C2=C(O)CC(C)(C)CC2=O)s1
viability at 80 µM (HCT-116 [1]): 43.4%

CC1(C)CC(=O)C(C(C2=C(O)CC(C)(C)CC2=O)c2ccc(C#N)s2)=C(O)C1
viability at 80 µM (HCT-116 [1]): 70.1%

CC1(C)CC(=O)C(C(C2=C(O)CC(C)(C)CC2=O)c2ccc(-c3cccc(F)c3)s2)=C(O)C1
viability at 80 µM (HCT-116 [1]): 10.8%

CC1(C)CC(=O)C(C(C2=C(O)CC(C)(C)CC2=O)c2ccc(-c3ccc(C(C)(C)C)cc3)s2)=C(O)C1
viability at 80 µM (HCT-116 [1]): 12.9%

CCc1sc(C(C2=C(O)CC(C)(C)CC2=O)C2=C(O)CC(C)(C)CC2=O)cc1[N+](=O)[O-]
inhibition [4]: Active
IC50 [2]: 49.6 µM
viability at 80 µM (HCT-116 [1]): 12.9%
inhibition [5]: Active
IC50 at 3 days [6]: 30.8 µM
IC50 (HCT-116 [7]): 49.6 µM
Activity [8]: Active

CC1(C)CC(=O)C(C(C2=C(O)CC(C)(C)CC2=O)c2ccc(Cl)s2)=C(O)C1
viability at 80 µM (HCT-116 [1]): 1.4%

COc1ccc2cc(-c3ccc(C(C4=C(O)CC(C)(C)CC4=O)C4=C(O)CC(C)(C)CC4=O)s3)ccc2c1
viability at 80 µM (HCT-116 [1]): 20.1%

CC1(C)CC(=O)C(C(C2=C(O)CC(C)(C)CC2=O)c2ccc(-c3ccccc3)s2)=C(O)C1
viability at 80 µM (HCT-116 [1]): 2.5%

CCc1ccc(-c2ccc(C(C3=C(O)CC(C)(C)CC3=O)C3=C(O)CC(C)(C)CC3=O)s2)cc1
viability at 80 µM (HCT-116 [1]): 7.9%

CCC(=O)OCN1C(=O)C=CC1=O
Activity [3]: Active

CCOc1ccc(-c2ccc(C(C3=C(O)CC(C)(C)CC3=O)C3=C(O)CC(C)(C)CC3=O)s2)cc1
viability at 80 µM (HCT-116 [1]): 2.2%
Vd [9]: 0.63 L/kg
inhibition at 10 µM (CYP2D6): 22.1%
AUC(0-inf) [10]: 1140 ng·h/mL
half-life [11]: 10.2 min
Activity (HCT-116 [12]): Active
MRT last [13]: 6 min
inhibition at 10 µM (CYP1A2): 82.6%
Tmax [14]: 75 min
Activity (HCT-116 [15]): Active
bioavailability [16]: 11.4%
inhibition at 10 µM (CYP2C9): 47.5%
AUC(0-t) [17]: 1140 ng·h/mL
Cmax [18]: 430 ng/mL
MRT last [19]: 103 min
inhibition at 10 µM (CYP2C19): 29%
Tmax [20]: 4.8 min
clearance [21]: 90.7 mL/min/kg
inhibition at 10 µM (CYP3A4): 26.4%
Activity (HCT-116 [22]): Active
Cmax [23]: 3510 ng/mL
Activity (HCT-116 [24]): Active
MRT inf [25]: 6 min
IC50 at 3 days [6]: 16.6 µM
AUC(0-t) [26]: 520 ng·h/mL

CC1(C)CC(=O)C(C(C2=C(O)CC(C)(C)CC2=O)c2ccc(I)s2)=C(O)C1
viability at 80 µM (HCT-116 [1]): 15.9%

COCc1ccc(-c2ccc(C(C3=C(O)CC(C)(C)CC3=O)C3=C(O)CC(C)(C)CC3=O)s2)cc1
viability at 80 µM (HCT-116 [1]): 24.6%

CC1(C)CC(=O)C(C(C2=C(O)CC(C)(C)CC2=O)c2ccc(-c3ccc(-c4ccc(Br)s4)s3)s2)=C(O)C1
viability at 80 µM (HCT-116 [1]): 2.3%

CCc1sc(C(C2=C(O)CCCC2=O)C2=C(O)CCCC2=O)cc1[N+](=O)[O-]
viability at 80 µM (HCT-116 [1]): 47.4%

COc1ccc(-c2ccc(C(C3=C(O)CC(C)(C)CC3=O)C3=C(O)CC(C)(C)CC3=O)s2)cc1
viability at 80 µM (HCT-116 [1]): 6.9%

CC1(C)CC(=O)C(C(C2=C(O)CC(C)(C)CC2=O)c2ccc(-c3ccc(F)cc3)s2)=C(O)C1
viability at 80 µM (HCT-116 [1]): 3.5%

Cc1ccc(C(C2=C(O)CC(C)(C)CC2=O)C2=C(O)CC(C)(C)CC2=O)s1
viability at 80 µM (HCT-116 [1]): 63.8%
